Assay results from patent US20210177879A1, “VITAMIN D RECEPTOR AGONIST” (Guanghzou University of Chinese Medicine, priority 2018, published 2021).

Experiments:
HT29 colon cancer cells = assay: In vitro proliferation inhibition of HT29 colon cancer cells; assay type: cell-based; conditions: concentration of 1 uM; compared with blank control group
Procedure: (§1) The HT29 cells were thawed, and cultured in a changed medium after 24 hours. Medium preparation method: 6% serum, 1% of a bispecific antibody+a 1640 basal medium. After grown to confluent, the cells were digested and subcultured to expand the number of cells. When reached the required amount, the cells were digested by trypsin, centrifuged, and resuspended in PBS to prepare a cell suspension of 1×10^8 cells/ml. A part of the cell suspension was added with the monotropein, desacetyl asperulosidic acid, asperuloside, and asperulosidic acid respectively, and the inhibition rate (%) of tumor cell proliferation by each of these different compounds was examined.

IL-6, IL-10, IL-1β = assay: Determination of cytokines in intestinal tumor tissues by Elisa; assay type: in vivo, Balb/c mice; conditions: vs model group
Procedure: Experimental method: 90 Balb/c mice of 6-8 weeks were purchased from the Experimental Animal Center in Guangzhou University of Chinese Medicine, weighed about 18-22 g, and subjected to adaptive feeding for 10 days. Modeling was divided into three stages. In the first stage, except for the normal group of animals being given saline injection, each of the other animals were intraperitoneally injected with a carcinogen AOM (10 mg/kg), and given free access to 2% DSS water from the next day for 7 days, and then given access to replaced regular drinking water for 14 days. In the second stage, the animals were given free access to 2% DSS water for 10 days, and then given access to replaced regular drinking water for 14 days. In the third stage, the animals were given free access to 2% DSS water for 10 days, and then given access to replaced regular drinking water for 11 days. The normal group was given access to regular drinking water throughout the experiment. The diet, water drinking and body weights of the animals were recorded daily and DAI scores were made, and the animals were killed and harvested at the 10th week. In this experiment, the animals were divided into groups and administrated on the first day of a modeling period of the second stage, and the total number of groups was set to 5 groups. […]
The intestinal tumor tissues frozen and stored at −80° C. were taken and homogenized, and the homogenate was determined with a BCA kit for the total protein concentration thereof. The homogenate was diluted by 20 times and then determined by Elisa method for cytokines: IL-6, IL-10, and IL-1β. […]

[1] = test system: AOM/DSS colon cancer model; assay: AOM/DSS colon cancer model, Experiment 1 (body weight, anal prolapse, organ coefficient, colon and tumor indexes); assay type: in vivo, Balb/c mice
Procedure: Experimental method: 90 Balb/c mice of 6-8 weeks were purchased from the Experimental Animal Center in Guangzhou University of Chinese Medicine, weighed about 18-22 g, and subjected to adaptive feeding for 10 days. Modeling was divided into three stages. In the first stage, except for the normal group of animals being given saline injection, each of the other animals were intraperitoneally injected with a carcinogen AOM (10 mg/kg), and given free access to 2% DSS water from the next day for 7 days, and then given access to replaced regular drinking water for 14 days. In the second stage, the animals were given free access to 2% DSS water for 10 days, and then given access to replaced regular drinking water for 14 days. In the third stage, the animals were given free access to 2% DSS water for 10 days, and then given access to replaced regular drinking water for 11 days. The normal group was given access to regular drinking water throughout the experiment. The diet, water drinking and body weights of the animals were recorded daily and DAI scores were made, and the animals were killed and harvested at the 10th week. In this experiment, the animals were divided into groups and administrated on the first day of a modeling period of the second stage, and the total number of groups was set to 5 groups. The first group was a blank control group (Normal), in which a total of 12 animals were given access to drinking water by gavage; the second group was a model group (AOM/DSS), in which a total of 22 animals were given access to drinking water by gavage; the third group was a positive drug control group (5-ASA+AOM/DSS), in which a total of 22 animals were given access to 100 mg/kg of mesalazine (5-ASA) by gavage; and the fourth and fifth groups were monotropein-intervening groups (Mo+AOM/DSS), which were a high dose of 8 mg/kg and a low dose of 2 mg/kg, respectively, with 17 animals in each group. Dosing was conducted daily until dissection.
(1) The calculation formula of a DAI score: DAI value=(score of weight loss+score of stool trait+score of blood in stool)/3.
The animals were anesthetized and harvested, and the liver, spleen, thymus and testis were weighed to calculate the organ coefficient; the colon tissue was taken, measured with a ruler for the length, and measured with a vernier caliper for the thickness, and the number and size of tumors and degree of colonic ulceration and adhesion were recorded; respective tissues were cut into small pieces and fixed, and the remaining tissues were frozen and stored; and the fixed tissues were used for HE staining and immunohistochemistry.

[2] = test system: SW1990 breast cancer cells; assay: In vitro proliferation inhibition of SW1990 breast cancer cells; assay type: cell-based; conditions: concentration of 1 uM; compared with blank control group
Procedure: as §1, with “SW1990” for “HT29”

intestinal permeability = assay: Determination of intestinal permeability in serum with FITC-dextran; assay type: in vivo, Balb/c mice; conditions: after third stage of modeling; monotropein high and low doses, 5-ASA 100 mg/kg
Procedure: Experimental method: 90 Balb/c mice of 6-8 weeks were purchased from the Experimental Animal Center in Guangzhou University of Chinese Medicine, weighed about 18-22 g, and subjected to adaptive feeding for 10 days. Modeling was divided into three stages. In the first stage, except for the normal group of animals being given saline injection, each of the other animals were intraperitoneally injected with a carcinogen AOM (10 mg/kg), and given free access to 2% DSS water from the next day for 7 days, and then given access to replaced regular drinking water for 14 days. In the second stage, the animals were given free access to 2% DSS water for 10 days, and then given access to replaced regular drinking water for 14 days. In the third stage, the animals were given free access to 2% DSS water for 10 days, and then given access to replaced regular drinking water for 11 days. […] The diet, water drinking and body weights of the animals were recorded daily and DAI scores were made, and the animals were killed and harvested at the 10th week. […] 25 μl of serum was taken and added with 100 μl PBS, and determined on a microplate reader for its fluorescence intensity, where the wavelength of the exciting light was 480 nm, and the wavelength of the emitting light was 520 nm. A standard curve was made and the sample concentration was calculated.

## O=C(O)C1=CO[C@@H](O[C@@H]2O[C@H](CO)[C@@H](O)[C@H](O)[C@H]2O)[C@H]2[C@@H]1C=C[C@]2(O)CO [monotropein]
HT29 colon cancer cells
  proliferation of HT29 colorectal cancer cells in vitro: significantly inhibit the proliferation
IL-6, IL-10, IL-1β; high-dose monotropein (8 mg/kg) and positive drug 5-ASA (100 mg/kg)
  level of IL-10 in tumor tissues: no significant differences
IL-6, IL-10, IL-1β; low-dose monotropein (2 mg/kg)
  level of IL-10 in tumor tissues: extremely significantly up-regulated
[1]; monotropein high (8 mg/kg) and low (2 mg/kg) doses, 5-ASA 100 mg/kg
  spleen enlargement caused by AOM/DSS modeling (organ coefficient): significantly reduce the spleen enlargement
[1]; per group, monotropein 8 mg/kg and 2 mg/kg groups (17 animals each), 5-ASA 100 mg/kg (22 animals), gavage daily, model group 8-12
  anal prolapse occurrence at the third stage of modeling: 2-6 animals
[2]
  proliferation of SW1990 cells in vitro: significantly inhibit the proliferation
Intestinal permeability
  intestinal permeability (FITC-dextran in serum) vs model group: significant differences
